# Where “and” joins values, the source holds several entries; their conditions need not be identical. Equal values may be shown once.
# Tests used:
# Trypanosoma brucei [1] = test: DNDI: Inhibition of Human African Trypanosomiasis, Cross 22, in vitro; assay type: functional, organism-based
# [2] = DNDI: Solubility in phosphate buffered saline at pH7.4 measured by nephelometry at room temperature (NEPH-RT); assay type: physicochemical; conditions: pH 7.4
# [3] = DNDI: Lipophilicity measured in Chromatographic hydrophobicity index (CHI) assay, pH 7.4; assay type: physicochemical; conditions: buffer
# [4] = DNDI: Cytotoxicity against L929 mouse fibroblasts, CYTO-SP, 24 hour; assay type: toxicity, cell-based; conditions: mouse, L929 mouse fibroblasts
# Trypanosoma brucei [5] = test: DNDI: Inhibition of Human African Trypanosomiasis, SBRI 427, in vitro; assay type: functional, organism-based
# [6] = DNDI: Cytotoxicity against L929 mouse fibroblasts, 72 hour.; assay type: toxicity, cell-based; conditions: mouse, L929 mouse fibroblasts
# [7] = mouse, microsomes, 1 µM
# Description: DNDI: in vitro intrinsic clearance in mouse liver microsomes at a concentration of 1uM
# in vitro = conditions: mouse, liver microsomes, t (1 / 2)
# Description: DNDI: half life in mouse liver microsomes at a concentration of 1uM
# [8] = Trypanosoma brucei, SBRI 427, read-out: IC50
SMILES,IC50 (Trypanosoma brucei [1]) [µg/mL],solubility kinetic [2] [µM],chromatographic logD [3],IC50 (Trypanosoma brucei [5]),IC50 (Trypanosoma brucei [5]; [8]) [µg/mL],CLint in vitro [7] [µL/min/mg],half-life at 1 µM (in vitro) [min],IC50 at 24 h [4] [µg/mL],IC50 at 72 h [6] [µg/mL]
CC(C)(C)c1ccc(-c2nc(CNC3CCCCCC3)co2)cc1,0.44,25,5.41,0.3 µg/mL and 0.49 µg/mL,0.39,,,> 50,< 3.13
Brc1ccc(-c2nc(CNC3CCCCCC3)co2)cc1,3.56,,,3.22 µg/mL and 1.69 µg/mL and 3.92 µg/mL,,,,> 50,15.7
Clc1ccc(-c2nc(CNC3[C@H]4C[C@@H]5C[C@@H](C[C@H]3C5)C4)co2)cc1 (stereo partly specified),2.29,,,2.01 µg/mL and 2.82 µg/mL,1.8,,,> 50,6.73
COc1ccc(/C(=N\O)Nc2ccccc2)cc1,,> 200,3.1,,2.72,121,7,> 50,
CCN(CC)CCCNc1cc(-c2ccccc2)nc2cc(-c3ccc(F)cc3)nn12,,25,4.84,,2.46,,,,3.05
O/N=C(\NC1CCCCC1)C1CCCCC1,,> 200,4.41,,> 5,,,> 50,
Cc1cccc(-c2nc(CNCCC3CCCN3C)c(C)o2)c1 (stereo unspecified),,> 200,3.3,,0.55,,,,9.29
Brc1ccc(-c2nc(CNC3[C@H]4C[C@@H]5C[C@@H](C[C@H]3C5)C4)co2)cc1 (stereo partly specified),2.26,,,1.2 µg/mL and 3.02 µg/mL and 2.81 µg/mL,,,,> 50,8.08
CC(C)(C)c1ccc(-c2nc(CNC[C@@H]3CC[C@H]4C[C@@H]3C4(C)C)co2)cc1,> 5,,,,> 5,,,> 50,> 50
N=C(NC1CCCCC1)c1ccccc1-c1ccccc1,,> 200,2.87,,> 5,,,> 50,
CC1(C)[C@H]2CC[C@@H](CNCc3coc(-c4ccc(Br)cc4)n3)[C@@H]1C2,> 5,,,,> 5,,,> 50,50
COc1ccc(CNC(CC(C)C)c2nc(Cc3ccccc3)c(N3CCOCC3)o2)cc1 (stereo unspecified),,25,> 5.2,,2.23,463,2,,> 10
Clc1ccc(-c2nc(CNC3CCCCCC3)co2)cc1,1.45,,,1.61 µg/mL and 1.55 µg/mL,1.27,,,26.6,3.43
CC1(C)[C@H]2CC[C@@H](CNCc3coc(-c4ccc(Cl)cc4)n3)[C@@H]1C2,1.04,,,0.9 µg/mL and 1.53 µg/mL,0.8,,,> 50,3.52
COc1ccc(/C(=N/O)Nc2cccc(F)c2)cc1,,50,3.09,,0.67,143.33,5.93,,> 10
O/N=C(/c1ccccc1-c1ccccc1)N1CCCCC1,,50,4.46,,> 5,157,5,> 50,
O=C1CCCN1CCCNc1cc(-c2ccccc2)nc2cc(-c3ccc(F)cc3)nn12,,6,4.77,,> 5,,,,> 10
COc1ccc(/C(=N/O)Nc2ccc(F)cc2)cc1,,100,3.02,,4.54,118,7,,> 10
CCC(C)C(NCc1ccccc1OC)c1nc(-c2ccccc2)c(N2CCCCC2)o1 (stereo unspecified),,2,> 5.2,,4.82,227,4,,> 10
CC(C)(C)c1ccc(-c2nc(CNC3[C@H]4C[C@@H]5C[C@@H](C[C@H]3C5)C4)co2)cc1 (stereo partly specified),0.83,,,0.87 µg/mL and 0.51 µg/mL and 1.1 µg/mL,,14,59,> 50,13
c1ccc(-c2ccc(-c3nc(CNC4[C@H]5C[C@@H]6C[C@@H](C[C@H]4C6)C5)co3)cc2)cc1 (stereo partly specified),0.92,,,0.7 µg/mL and 0.85 µg/mL,1.18,,,> 50,9.8
CCCCc1ccc(-c2nc(CNCCN3CCCC3)co2)cc1,,< 1,4.89,,0.84,33,26,,3.87
C[C@@H]1[C@H]2C[C@@H](C[C@H]1NCc1coc(-c3ccc(-c4ccccc4)cc3)n1)C2(C)C,0.37,,,0.19 µg/mL,0.24,,,8.15,< 3.13
Fc1cccc(-c2cc3nc(-c4ccccc4)cc(NCCCN4CCCC4)n3n2)c1,,3,4.79,,1.02,,,,2.49
O/N=C(/Nc1ccc(F)cc1)c1ccccc1-c1ccccc1,,25,3.98,,3.46,59,14,> 50,

# The next lines start with results.
IC50 (Trypanosoma brucei [1]) [µg/mL],solubility kinetic [2] [µM],chromatographic logD [3],IC50 (Trypanosoma brucei [5]),IC50 (Trypanosoma brucei [5]; [8]) [µg/mL],CLint in vitro [7] [µL/min/mg],half-life at 1 µM (in vitro) [min],SMILES,IC50 at 24 h [4] [µg/mL],IC50 at 72 h [6] [µg/mL]
,3,4.28,,0.39,13,65,CCCCCC(C)NCc1coc(-c2ccc(OC3CCCCC3)cc2)n1 (stereo unspecified),,1.48
,2,4.64,,0.31,12,73,CCCCOc1ccc(-c2nc(CNCCC3CCCN3C)co2)cc1 (stereo unspecified),,2.9
1.12,,,1.36 µg/mL and 0.96 µg/mL,1.46,22,39,CCOc1ccc(-c2nc(CNC3CCCCCC3)co2)cc1,25.1,< 3.13
0.82,,,0.42 µg/mL and 0.92 µg/mL and 0.85 µg/mL,,,,C[C@@H]1[C@H]2C[C@@H](C[C@H]1NCc1coc(-c3ccc(Br)cc3)n1)C2(C)C,> 50,< 3.13
> 5,,,,> 5,,,C[C@@H]1[C@H]2C[C@@H](C[C@H]1NCc1coc(-c3ccc(C(C)(C)C)cc3)n1)C2(C)C,> 50,> 50
1.03,,,1.54 µg/mL and 0.83 µg/mL and 0.57 µg/mL,,95,9,CCCCOc1ccc(-c2nc(CNC[C@@H]3CC[C@H]4C[C@@H]3C4(C)C)co2)cc1,16.4,< 3.13
,< 1,5.2,,0.14,11,76,CCCCCOc1ccc(-c2nc(CNCCC3CCCN3C)co2)cc1 (stereo unspecified),,1.21
0.9,,,0.71 µg/mL and 0.8 µg/mL,1.06,,,C[C@H]1C(NCc2coc(-c3ccc(Cl)cc3)n2)C[C@@H]2C[C@H]1C2(C)C (stereo partly specified),> 50,< 3.13
0.87,,,0.54 µg/mL and 0.97 µg/mL and 1.17 µg/mL,,,,CC1CC(NCc2coc(-c3ccc(Br)cc3)n2)CC(C)(C)C1 (stereo unspecified),> 50,< 3.13
,2,6.02,,0.16,8,107,CCCCCOc1ccc(-c2nc(CNC3CC(C)CC(C)(C)C3)co2)cc1 (stereo unspecified),> 50,< 3.13
> 5,,,,> 5,,,CC1CC(NCc2coc(-c3ccc(C(C)(C)C)cc3)n2)CC(C)(C)C1 (stereo unspecified),> 50,> 50
0.58,,,0.61 µg/mL and 0.72 µg/mL and 0.29 µg/mL,,,,CCCCOc1ccc(-c2nc(CN[C@@H]3C[C@@H]4C[C@H]([C@H]3C)C4(C)C)co2)cc1,8.05,< 3.13
0.85,,,0.86 µg/mL and 1.52 µg/mL,1.18,,,CC1CC(NCc2coc(-c3ccc(Cl)cc3)n2)CC(C)(C)C1 (stereo unspecified),> 50,< 3.13
,1,4.97,,0.79,55,15,CCCCc1ccc(-c2nc(CNCCN(C)C)co2)cc1,,4.87
0.34,,,0.37 µg/mL and 0.29 µg/mL,0.36,,,CCCCOc1ccc(-c2nc(CNC3[C@H]4C[C@@H]5C[C@@H](C[C@H]3C5)C4)co2)cc1 (stereo partly specified),15.9,< 3.13
,2,4.16,,0.59,188,5,CCCCCC(C)NCc1coc(-c2ccc(OCC(=O)c3ccccc3)cc2)n1 (stereo unspecified),,1.74

# Reference: ChEMBL document CHEMBL1857833, “Screening and optimization of specific chemical series against human African Trypanosomiasis (HAT)”
